{"source": "patent US10849874B2", "about": "“Use of composition for modulating angiogenesis” (National Sun Yat-sen University, priority 2015, dated 2020)", "key": {"filaggrin": {"tested_on": "filaggrin", "assay": "Staining of regulating factor for skin barrier function (filaggrin as marker) in atopic eczema", "format": "in vivo", "conditions": "balb/c mice, 50 μg/0.2 ml of excavatolide B in lotion (FIG. 10)", "protocol": "(§1) The balb/c mice were used in this experiment. The method for inducing atopic eczema comprised: (1) prepared 1% DNCB in olive oil/acetone (1:4); and (2) applied 1% DNCB on the shaved skins of the backs of balb/c mice at day 1, 3, 9, and 11, respectively. The balb/c mice were randomly divided into three groups: (A) the control group; (B) the atopic eczema group; and (C) the EXC-B treating group. The EXC-B treating group was treated with excavatolide B for seven consecutive days starting from day 15. Next, the present invention assessed the treating effect of EXC-B on atopic eczema by image analysis of the appearance.\n(§2) (b) Immunohistochemistry Staining:\n(§3) Mice were scarified by cervical dislocation. The skin tissues of the backs of the mice were collected, fixed with formalin buffer and embedded in paraffin. The tissue sections were treated with a graded alcohol bath after the paraffin-embedded tissue sections (2 μm) were deparaffinized by xylene. Next, the sections reacted with 0.3% hydrogen peroxide for 30 minutes to remove endogenous peroxidase. After the paraffin-embedded tissue sections reacted with a protein K in a 4% phosphate buffer for 20 minutes at 37° C., the paraffin-embedded tissue sections were washed with 4% phosphate buffer and then blocked with horse serum diluted by phosphate buffer for 1 hr. […]"}, "burn wound tissue": {"tested_on": "burn wound tissue", "assay": "HE staining of tissue section of burn wound", "format": "in vivo, Male Wistar rats", "conditions": "rats, lotion containing EXC-B; HE stained tissue section (FIG. 5)", "protocol": "Pathologic Tissue Slice and HE Staining\nAfter the rats had suffered injuries for specific days according to experimental design they were humanely sacrificed, PBS containing heparin (0.2 U/ml) at 4 degrees Celsius was injected into aorta until PBS carrying no color flowed out of the vein. 4% paraformaldehyde at 4° C. was injected to fasten it, the wounded area was carefully taken out by surgical blades and immersed into 10% Formalin fixing solution to be reserved at 4° C. and fixed for several days. Next, the fixed tissue was dehydrated and wax infiltrated. The skin tissue was dehydrated and wax infiltrated by utilizing a tissue automatic processing system. Afterwards, the tissue was embedded by a paraffin embedding machine into paraffin blocks. After tissue blocks were sliced through a paraffin microtome, tissue slices were stained by using hematoxylin and eosin stain. Upon completion, tissue slices were mounted by micro-mount, and completed sample slices then were placed on an optical microscope for observation, the sample slices were further photographed and recorded by the digital image capture system."}, "VEGF": {"tested_on": "VEGF", "assay": "Staining of VEGF expression level in tissue of atopic eczema", "format": "in vivo", "conditions": "balb/c mice, 50 μg/0.2 ml of excavatolide B in lotion (FIG. 8)", "protocol": "as §1, §2, §3"}, "substance P": {"tested_on": "substance P", "assay": "Staining of itchy factor (substance P as marker) in atopic eczema", "format": "in vivo", "conditions": "balb/c mice, 50 μg/0.2 ml of excavatolide B in lotion (FIG. 9)", "protocol": "as §1, §2, §3"}, "[1]": {"tested_on": "vascular endothelial growth factor (VEGF)", "assay": "Staining of VEGF expression level in tissue of burn wound", "format": "in vivo, rat", "conditions": "rats, lotion containing EXC-B", "protocol": "as §2\n(§4) Mice were scarified by cervical dislocation. The skin tissues of the backs of the mice were collected, fixed with formalin buffer and embedded in paraffin. The tissue sections were treated with a graded alcohol bath after the paraffin-embedded tissue sections (2 μm) were deparaffinized by xylene. Next, the sections reacted with 0.3% hydrogen peroxide for 30 minutes to remove endogenous peroxidase. After the paraffin-embedded tissue sections reacted with a protein K in a 4% phosphate buffer for 20 minutes at 37° C., the paraffin-embedded tissue sections were washed with 4% phosphate buffer and then blocked with horse serum diluted by phosphate buffer for 1 hr. Next, the sections were incubated with a diluted target protein antibody for 18-20 hr at 4° C. in a humid environment. After recycling the antibody, the horse serum was reused to incubate the sections for 1 hr and the sections subsequently reacted with an added corresponding secondary antibody for 90 minutes. After the sections reacted with ABC kit, DBA was used to produce color reaction, and the sections were air-dried with a graded alcohol bath and covered with a cover glass. The completed sample section was placed in an optical microscope (DM 6000, Leica Inc, Germany) and a stereomicroscope (APO Z16, Leica Inc. Singapore). […]"}, "[2]": {"tested_on": "angiogenesis (blood vessels marked by vWF)", "assay": "Staining of angiogenesis (blood vessels marked by vWF) in tissue of burn wound", "format": "in vivo, rat", "conditions": "rats, lotion containing EXC-B, versus silver sulphadiazine treating group (FIG. 6)", "protocol": "as §2, §4"}, "burn wound": {"tested_on": "burn wound", "assay": "Healing of burn wound (wound appearance and wound area)", "format": "in vivo, Male Wistar rats", "conditions": "rats; for wound healing depended on time (burned restoring area, area under the curve) compared to burn wound group and lotion treating group: day 0-27 (FIG. 4)", "protocol": "(b) Preparation of Animal and Operation of Burn Wound:\nMale Wistar rats (400-450 g) were used in this experiment. After the rats were anesthetized by 2.5% isoflurane, the present invention selected four burned locations (two locations beneath the scapula of the rat and two locations in the midline of the lumbar spine) on the back of the anesthetized rat. The skins of the burned locations were tightened, and a copper block (2×2 cm) which was preheated to 175° C. by a dry bath was used to closely touch these skins of the locations for 10 seconds to form burn wounds of full-layered skins. The copper block was appropriately moved in order to form a quadrilateral form of burn wound during the burning process. Attention was paid not to add extra pressure on the copper block in order to ensure the same burn pressure each time during the burning process.\n(§5) (c) Wound Observation and Area Calculation:\n(§6) After being burned, the rats were anesthetized and then taken pictures according to experimentally designed dates. A series of pictures were taken by a digital camera (Coolpix P6000, Nikon, Japan) under the same condition (the diaphragm is 7.2, and the camera shutter is 1/60). A digital image capture system software (Diagnostic Instruments, Inc., Sterling Heights, Mich., U.S.A.) was used to analyze the captured wound pictures to calculate the wound area. The data of the wound area at each observation point were respectively presented at percentage of the wound area relative to day zero."}, "diabetic incised wound": {"tested_on": "diabetic incised wound", "assay": "Healing of diabetic incised wound (wound appearance and wound area)", "format": "in vivo, Male Wistar rats", "conditions": "STZ-diabetic rats", "protocol": "(a) Preparation of Animal and Operation of Incised Wound in Diabetic Rat:\nMale Wistar rats (400-450 g) were used in this experiment. The induction of diabetes was performed by using a citrate buffer solution to prepare streptozotocin (STZ, catalog No. 85882 FLUKA, Sigma, St. Louis, Mo., USA). The rats were anesthetized by 2.5% isoflurane and administered with STZ (60 mg/kg) by tail intravenous injection. A week after STZ injection, those rats with blood glucose levels more than 250 mg/dl were identified as successfully diabetic inducted rats. […] After the surgery of the incision of full-layered skins, the rats were randomly divided into two groups: (1) diabetic incised wound group (administered a normal lotion); and (2) EXC-B treating group (administered a lotion containing excavatolide B). The EXC-B treating group was treated with 1 mg/0.2 ml of excavatolide B in the lotion daily.\nas §5\nas §6, with “The data of the wound area at each observation point were respectively presented at percentage of the wound area relative to day zero.” left out"}, "atopic eczema": {"tested_on": "atopic eczema", "assay": "DNCB-induced atopic eczema model, image analysis of skin appearance", "format": "in vivo", "conditions": "balb/c mice", "protocol": "(a) Preparation of Animal and Induction of Atopic Eczema:\nas §1"}}, "data": [{"substance": "excavatolide B [EXC-B]", "values": [{"measurement": "decrease of the regulating factor (filaggrin as the marker) for skin barrier function", "setting": "filaggrin", "result": "recovered"}, {"measurement": "tissue changes induced by burn injury (thickening of epithelial layer, damages to dermis, infiltration of neutrophils)", "setting": "burn wound tissue", "result": "significantly improved"}, {"measurement": "increased expression of the VEGF in the tissue of atopic eczema", "setting": "VEGF", "result": "inhibited"}, {"measurement": "itchy factors (the substance P as the marker) in the tissue of the skin", "setting": "substance P", "result": "significantly inhibited"}, {"measurement": "expression level of the VEGF of the burned tissue", "setting": "[1]; versus lotion treating group (FIG. 6)", "result": "substantially increased"}, {"measurement": "treating effect on VEGF expression of the burned tissue relative to silver sulphadiazine", "setting": "[1]; versus silver sulphadiazine treating group (FIG. 6)", "result": "better than the effect of the silver sulphadiazine"}, {"measurement": "rate of vascular proliferation (blood vessels marked by vWF)", "setting": "[2]", "result": "higher than that of the silver sulphadiazine treating group"}, {"measurement": "wound healing depended on time (burned restoring area, area under the curve) compared to burn wound group and lotion treating group", "setting": "burn wound; 10 μg EXC-B treating group", "result": "significantly accelerate wound healing"}, {"measurement": "wound healing (appearance, image analysis) after burn injury", "setting": "burn wound; 10 μg/0.2 ml of EXC-B in lotion, appearance at 2-24 days after burn injury (FIG. 3 K-O)", "result": "significantly improved"}, {"measurement": "wound healing depended on time (burned restoring area, area under the curve) compared to burn wound group and lotion treating group", "setting": "burn wound; 50 μg EXC-B treating group", "result": "significantly accelerate wound healing"}, {"measurement": "wound healing (appearance, image analysis) after burn injury", "setting": "burn wound; 50 μg/0.2 ml of EXC-B in lotion, appearance at 2-24 days after burn injury (FIG. 3 P-T)", "result": "significantly improved"}, {"measurement": "wound healing (appearance, image analysis) compared to the diabetic incised wound group", "setting": "diabetic incised wound; 1 mg/0.2 ml of excavatolide B in lotion daily, topical, appearance at 4-25 days after incised injury (FIG. 1)", "result": "significantly improved"}, {"measurement": "wound healing (wound restoring area depended on time) compared to the diabetic incised wound group", "setting": "diabetic incised wound; 1 mg/0.2 ml of excavatolide B in lotion, at day 7, 21, and 28 (FIG. 2)", "result": "significantly improved"}, {"measurement": "side effects of the clinical treatment, such as skin dryness and albinism", "setting": "atopic eczema; 50 μg/0.2 ml of excavatolide B in lotion (FIG. 7)", "result": "no side effects of the clinical treatment were observed"}, {"measurement": "condition of the treated skin (inflammations, scratched wounds)", "setting": "atopic eczema; 50 μg/0.2 ml of excavatolide B in lotion, seven consecutive days from day 15 (FIG. 7)", "result": "significantly better than the skin of the atopic eczema"}]}]}
